The values that follow come from ChEMBL document CHEMBL5725324, “Amide compounds for treatment of complement mediated disorders” (2017).

Each structure is given as a SMILES string.

For the experiment, the target named is Complement factor D (Homo sapiens, UniProt P00746). The experiment can be described thus: Human Factor D Assay: Human factor D (purified from human serum, Complement Technology, Inc.) at 80 nM final concentration is incubated with test compound at various concentrations for 5 minutes at room temperature in 50 mM Tris, 1M NaCl, pH 7.5. A synthetic substrate Z-L-Lys-SBzl and DTNB (Ellman's reagent) are added to final concentrations of 100 μM each. The increase in color is recorded at OD405 nm in a microplate in kinetic mode over 30 minutes with 30 second time points in a […]. IC50 values are calculated by non-linear regression from the percentage of inhibition of complement factor D activity as a function of test compound concentration.
Chain of Complement factor D (P00746 whole entry): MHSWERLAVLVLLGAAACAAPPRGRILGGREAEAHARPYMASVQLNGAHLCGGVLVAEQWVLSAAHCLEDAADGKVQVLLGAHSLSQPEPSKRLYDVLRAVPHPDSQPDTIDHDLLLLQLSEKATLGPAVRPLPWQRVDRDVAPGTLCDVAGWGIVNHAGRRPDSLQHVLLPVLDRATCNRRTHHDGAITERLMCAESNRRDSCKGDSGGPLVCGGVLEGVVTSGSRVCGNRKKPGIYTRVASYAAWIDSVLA

In the case of `CC(=O)c1cn(CC(=O)N2[C@@H]3C[C@@H]3C[C@H]2C(=O)NCc2cccc(Cl)c2F)c2ccc(NC(=O)N3CCCC3)cc12`, the IC50 (in general, the concentration that inhibits the measured activity by half) was under 1000 nM.
